Structures are written as SMILES.

The target of assay [1] is DNA gyrase (Staphylococcus aureus, UniProt P0A0K8+P20831). In words: Inhibition of Staphylococcus aureus DNA gyrase. The format is protein-complex assay.
Assay [2] concerns the target DNA gyrase subunit B (Staphylococcus aureus, UniProt P0A0K8). In words: Inhibition of Staphylococcus aureus GyrB.

Sequence of DNA gyrase (P0A0K8 whole entry): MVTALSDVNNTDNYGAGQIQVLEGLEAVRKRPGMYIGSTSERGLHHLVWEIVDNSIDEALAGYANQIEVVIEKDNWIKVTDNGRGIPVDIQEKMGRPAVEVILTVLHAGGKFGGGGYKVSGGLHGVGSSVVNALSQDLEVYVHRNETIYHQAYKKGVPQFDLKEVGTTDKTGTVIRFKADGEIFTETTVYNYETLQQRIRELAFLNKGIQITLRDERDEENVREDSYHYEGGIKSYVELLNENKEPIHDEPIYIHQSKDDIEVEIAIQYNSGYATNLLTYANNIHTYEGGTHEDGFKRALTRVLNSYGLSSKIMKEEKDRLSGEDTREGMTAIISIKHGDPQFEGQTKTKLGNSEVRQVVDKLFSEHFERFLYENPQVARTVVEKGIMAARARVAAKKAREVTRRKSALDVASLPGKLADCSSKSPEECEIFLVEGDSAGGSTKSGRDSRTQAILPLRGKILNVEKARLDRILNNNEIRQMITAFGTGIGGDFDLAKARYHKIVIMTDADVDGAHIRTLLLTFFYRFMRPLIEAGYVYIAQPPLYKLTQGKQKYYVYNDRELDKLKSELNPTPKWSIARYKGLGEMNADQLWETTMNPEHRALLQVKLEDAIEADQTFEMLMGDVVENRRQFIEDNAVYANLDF
Sequence of DNA gyrase (P20831 whole entry): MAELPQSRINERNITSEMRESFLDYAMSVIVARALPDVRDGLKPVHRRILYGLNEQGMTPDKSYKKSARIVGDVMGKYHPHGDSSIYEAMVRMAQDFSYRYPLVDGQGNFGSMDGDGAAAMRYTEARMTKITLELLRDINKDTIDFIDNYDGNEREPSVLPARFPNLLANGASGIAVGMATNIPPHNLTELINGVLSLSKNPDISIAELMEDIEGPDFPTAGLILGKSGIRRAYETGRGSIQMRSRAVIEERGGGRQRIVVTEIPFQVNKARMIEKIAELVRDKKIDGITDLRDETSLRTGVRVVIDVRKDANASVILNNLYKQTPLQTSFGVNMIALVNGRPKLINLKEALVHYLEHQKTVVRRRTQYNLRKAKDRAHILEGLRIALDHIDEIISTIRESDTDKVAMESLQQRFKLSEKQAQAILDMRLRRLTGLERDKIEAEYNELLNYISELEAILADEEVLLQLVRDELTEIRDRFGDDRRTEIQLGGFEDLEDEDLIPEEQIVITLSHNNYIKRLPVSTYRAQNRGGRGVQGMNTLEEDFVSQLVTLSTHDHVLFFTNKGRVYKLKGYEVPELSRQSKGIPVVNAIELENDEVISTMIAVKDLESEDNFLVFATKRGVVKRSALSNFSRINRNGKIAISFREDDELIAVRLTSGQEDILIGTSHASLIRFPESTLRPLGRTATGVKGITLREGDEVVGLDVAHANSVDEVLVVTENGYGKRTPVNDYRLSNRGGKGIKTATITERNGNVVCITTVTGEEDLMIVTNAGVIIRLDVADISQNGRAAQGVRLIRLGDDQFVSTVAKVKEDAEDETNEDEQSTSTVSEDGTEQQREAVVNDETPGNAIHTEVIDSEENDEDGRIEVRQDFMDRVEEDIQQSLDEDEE
Sequence of DNA gyrase subunit B (P0A0K8 whole entry): as the sequence (P0A0K8 whole entry) above

Take `Cc1occc1C(=O)NNC(=S)NC(=O)c1ccccc1`: the concentration for half-maximal inhibition (IC50) in assay [1] was found to be 15 µM. This counts as double-digit micromolar.
`C=C1CC[C@@H](O[C@H]2C[C@@](O)([C@H](C)NC(=O)c3[nH]c(C)c(Cl)c3Cl)[C@H](O)[C@@H](C)O2)[C@@H]2C=C[C@H](C)C(/C(O)=C3\C(=O)[C@H](C(C)C)N([C@H]4O[C@H](C)[C@H](OC(N)=O)[C@H](OC(C)=O)[C@@H]4OC)C3=O)[C@@H]12` (some centres not stated) [KIBDELOMYCIN] returned an IC50 in assay [2] of 0.009 µM.

The term IC50 denotes the midpoint of a concentration-inhibition curve. Low values mean higher potency, high ones lower potency.

The values above are taken from ChEMBL document CHEMBL4152253, “New developments in non-quinolone-based antibiotics for the inhibiton of bacterial gyrase and topoisomerase IV” (Eur J Med Chem, 2018).
